From US20250188110A1, “SPECIFIC SMALL MOLECULE INHIBITORS THAT BLOCK KMT9 METHYLTRANSFERASE ACTIVITY AND FUNCTION” (ALBERT-LUDWIGS-UNIVERSITÄT FREIBURG, priority 2021, published 2025)

Columns and labels:
KMT9 [1] = molecular target: T1, KMT9 (Homo sapiens, UniProt Q9Y5N5); experiment: Microscale thermophoresis (MST) KMT9 binding; details: microscale thermophoresis, His-tag labelled KMT9 (20 nM); read-out: MST
T1 sequence (Q9Y5N5 1-214): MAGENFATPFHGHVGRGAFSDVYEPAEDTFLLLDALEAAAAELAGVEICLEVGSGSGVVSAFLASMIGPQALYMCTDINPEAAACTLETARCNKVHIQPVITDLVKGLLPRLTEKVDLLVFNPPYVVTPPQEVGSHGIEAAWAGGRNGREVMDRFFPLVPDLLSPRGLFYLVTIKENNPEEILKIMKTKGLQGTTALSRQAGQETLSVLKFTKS
T1 sequence (Q9UI30 1-120 isoform Q9UI30-2 partner): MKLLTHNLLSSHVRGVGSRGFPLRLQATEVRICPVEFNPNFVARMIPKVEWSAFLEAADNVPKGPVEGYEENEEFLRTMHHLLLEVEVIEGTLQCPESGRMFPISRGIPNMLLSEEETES
In short: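 Kd from microscale thermophoresis: compound series against 20 nM His-KMT9 labelled via RED-Tris-NTA, buffer 25 mM HEPES (pH 7.5)/100 mM NaCl/1 mM DTT/0.05% Tween, 40% MST power, 100% LED. Reported as classes: A ≤10 nM, B >10–100 nM, C >100–1000 nM, D >1000 nM.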

KMT9 [2] = molecular target: T1, KMT9; experiment: KMT9 thermal shift assay (SyproOrange); format: binding; details: ΔTm; 500 µM compound, 2 μM KMT9, 5X SO; read-out: Thermal shift
In short: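 ΔTm versus DMSO-only control is reported in bins (>20 K, 15–20 K, 10–15 K, ≤10 K), using Tm from Boltzmann sigmoidal fits of SyproOrange melt curves. KMT9 with compound in pH 8.5 BTP buffer containing MgCl2 and DTT was preincubated at 25° C, then ramped 1° C per 15 s up to 95° C.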

KMT9 [3] = molecular target: T1, KMT9; experiment: KMT9 methyltransferase inhibition assay, 3H-SAM scintillation (entries 1-154); format: biochemical; details: entries 1-154: 3H-SAM assay, 25 nM KMT9, 5 μM ETF1
In short: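 Tritium transfer from SAM (0.3 μM 3H-SAM, 0.7 μM unlabelled, final) to 5 μM ETF1 fragment by 25 nM KMT9 was measured after 2 h at 30° C, pH 8.5. Precipitated peptide was collected on filters and scintillation counted; IC50 came from a four-parameter fit of inhibition normalised to controls.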

SMILES | Kd (KMT9 [1]) [µM] | ΔTm at 500 µM (KMT9 [2]) [°C] | IC50 (KMT9 [3]) [µM]
CC(=O)N1CCC(c2cn([C@@H]3C[C@H](CNCCCNCCc4ccccc4)[C@@H](O)[C@H]3O)c3ncnc(N)c23)CC1 [481 (355), 1-(4-(4-Amino-7-((1R,2S,3R,4R)-2,3-dihydroxy-4-(((3-(phenethylamino)propyl)amino)methyl)cyclopentyl)-7H-pyrrolo[2,3-d]pyrimidin-5-yl)piperidin-1-yl)ethan-1-one] | 0.1 to 1 | 10 to 15 | 1 to 10
CN1CC=C(c2cn([C@@H]3C[C@H](CNCCCNCCc4ccccc4)[C@@H](O)[C@H]3O)c3ncnc(N)c23)CC1 [482 (356), (1R,2S,3R,5R)-3-(4-amino-5-(1-methyl-1,2,3,6-tetrahydropyridin-4-yl)-7H-pyrrolo[2,3-d]pyrimidin-7-yl)-5-(((3-(phenethylamino)propyl)amino)methyl) cyclopentane-1,2-diol] | > 1 | 10 to 15 | 1 to 10
N#Cc1cn([C@@H]2C[C@H](CNCCCNCCc3ccccc3)[C@@H](O)[C@H]2O)c2ncnc(N)c12 [483 (357), 4-Amino-7-((1R,2S,3R,4R)-2,3-dihydroxy-4-(((3-(phenethylamino)propyl)amino)methyl)cyclopentyl)-7H-pyrrolo[2,3-d]pyrimidine-5-carbonitrile] | 0.1 to 1 | 10 to 15 | 1 to 10
Nc1ncnc2c1c(Br)cn2[C@@H]1C[C@H](CN2CC(CNCCc3ccccc3)C2)[C@@H](O)[C@H]1O [484 (358), (1R,2S,3R,5R)-3-(4-Amino-5-bromo-7H-pyrrolo[2,3-d]pyrimidin-7-yl)-5-((3-((phenethylamino)methyl)azetidin-1-yl)methyl) cyclopentane-1,2-diol] | 0.01 to 0.1 | 15 to 20 | 0.1 to 1
C=Cc1cn([C@@H]2C[C@H](CN3CC(CNCCc4ccc(F)cc4)C3)[C@@H](O)[C@H]2O)c2ncnc(N)c12 [485 (359), (1R,2S,3R,5R)-3-(4-Amino-5-vinyl-7H-pyrrolo[2,3-d]pyrimidin-7-yl)-5-((3-(((4-fluorophenethyl)amino)methyl)azetidin-1-yl)methyl) cyclopentane-1,2-diol] | 0.01 to 0.1 | 15 to 20 | 1 to 10
Nc1ncnc2c1c(-c1nccs1)cn2[C@@H]1C[C@H](C2CCNCC2)[C@@H](O)[C@H]1O [487 (360)] | 0.01 to 0.1 | 15 to 20 | 1 to 10
Nc1ncnc2c1ncn2[C@@H]1O[C@H](C(=O)NCCCNC(=O)Nc2ccccc2)[C@@H](O)[C@H]1O [684 (202), (2S,3S,4R,5R)-5-(6-amino-9H-purin-9-yl)-3,4-dihydroxy-N-(3-(3-phenylureido)propyl) tetrahydrofuran-2-carboxamide] | > 1 | ≤ 10 | > 10
CNc1ncnc2c1ccn2[C@@H]1C[C@H](COCC(=O)NCCc2ccccc2)[C@@H](O)[C@H]1O [689 (298), 2-(((1R,2R,3S,4R)-2,3-Dihydroxy-4-(4-(methylamino)-7H-pyrrolo[2,3-d]pyrimidin-7-yl)cyclopentyl)methoxy)-N-phenethylacetamide] | > 1 | ≤ 10 | > 10
Nc1ncnc2c1c(-c1nccs1)cn2[C@@H]1C[C@H](CC2CNC2)[C@@H](O)[C@H]1O [Compound 486, (1R,2S,3R,5S)-3-(4-amino-5-(thiazol-2-yl)-7H-pyrrolo[2,3-d]pyrimidin-7-yl)-5-(azetidin-3-ylmethyl) cyclopentane-1,2-diol] | > 1 | ≤ 10 | > 10
Nc1ncnc2c1c(-c1nc(Cc3ccccc3)cs1)cn2[C@@H]1C[C@H](C2CCNCC2)[C@@H](O)[C@H]1O [Compound 488, (1R,2S,3R,5R)-3-(4-amino-5-(4-benzylthiazol-2-yl)-7H-pyrrolo[2,3-d]pyrimidin-7-yl)-5-(piperidin-4-yl)cyclopentane-1,2-diol] | 0.01 to 0.1 | 10 to 15 | 1 to 10
Nc1ncnc2c1c(-c1ccn(Cc3ccccc3)n1)cn2[C@@H]1C[C@H](C2CCNCC2)[C@@H](O)[C@H]1O [Compound 489, (1R,2S,3R,5R)-3-(4-amino-5-(1-benzyl-1H-pyrazol-3-yl)-7H-pyrrolo[2,3-d]pyrimidin-7-yl)-5-(piperidin-4-yl)cyclopentane-1,2-diol] | 0.01 to 0.1 | 15 to 20 | 1 to 10
O[C@@H]1[C@H](O)[C@@H](C2CCNCC2)C[C@H]1n1cc2c3c(ncnc31)NCCC2 [Compound 490, (1S,2R,3R,5R)-3-(piperidin-4-yl)-5-(6,7,8,9-tetrahydro-2H-2,3,5,6-tetraazabenzo[cd]azulen-2-yl)cyclopentane-1,2-diol] | 0.1 to 1 | 10 to 15 | 1 to 10
Nc1ncnc2c1c(-c1nccs1)cn2[C@@H]1C[C@H](CN(CCCNCCc2ccc(F)cc2)c2cn[nH]c2)[C@@H](O)[C@H]1O [Compound 599, (1R,2S,3R,5R)-3-[4-Amino-5-(1,3-thiazol-2-yl)pyrrolo[2,3-d]pyrimidin-7-yl]-5-{[(3-{[2-(4-fluorophenyl)ethyl]amino}propyl)(1H-pyrazol-4-yl)amino]methyl}cyclopentane-1,2-diol] | ≤ 0.01 | 15 to 20 | < 0.1
CS(=O)(=O)n1ccc(-c2cn([C@@H]3C[C@H](CNCCCNCCc4ccccc4)[C@@H](O)[C@H]3O)c3ncnc(N)c23)n1 [Compound 600, (1R,2S,3R,5R)-3-(4-Amino-5-(1-(methylsulfonyl)-1H-pyrazol-3-yl)-7H-pyrrolo[2,3-d]pyrimidin-7-yl)-5-(((3-(phenethylamino)propyl)amino)methyl)cyclopentane-1,2-diol] | ≤ 0.01 | 15 to 20 | < 0.1
Nc1ncnc2c1c(-c1ncns1)cn2[C@@H]1C[C@H](CNCCCNCCc2ccccc2)[C@@H](O)[C@H]1O [Compound 601, (1R,2S,3R,5R)-3-(4-amino-5-(1,2,4-thiadiazol-5-yl)-7H-pyrrolo[2,3-d]pyrimidin-7-yl)-5-(((3-(phenethylamino)propyl)amino)methyl)cyclopentane-1,2-diol] | 0.1 to 1 | 10 to 15 | 1 to 10
Nc1ncnc2c1c(-c1nccs1)cn2[C@@H]1C[C@H](CNCCCNCCc2ccc(F)cc2)[C@@H](O)[C@H]1O [Compound 602, (1R,2S,3R,5R)-3-[4-Amino-5-(1,3-thiazol-2-yl)pyrrolo[2,3-d]pyrimidin-7-yl]-5-{[(3-{[2-(4-fluorophenyl)ethyl]amino}propyl)amino]methyl}cyclopentane-1,2-diol] | 0.01 to 0.1 | 15 to 20 | 0.1 to 1
Nc1ncnc2c1ccn2[C@@H]1C[C@H](CN(CCCNCCc2ccc(F)cc2)c2c[nH]nc2Br)[C@@H](O)[C@H]1O [Compound 603, (1R,2S,3R,5R)-3-{4-Aminopyrrolo[2,3-d]pyrimidin-7-yl}-5-{[(3-bromo-2H-pyrazol-4-yl)(3-{[2-(4-fluorophenyl)ethyl]amino}propyl)amino]methyl}cyclopentane-1,2-diol] | ≤ 0.01 | 15 to 20 | 0.1 to 1
Nc1ncnc2c1c(-c1ccn(S(=O)(=O)c3ccccc3)n1)cn2[C@@H]1C[C@H](CNCCCNCCc2ccccc2)[C@@H](O)[C@H]1O [Compound 604, (1R,2S,3R,5R)-3-(4-Amino-5-(1-(phenylsulfonyl)-1H-pyrazol-3-yl)-7H-pyrrolo[2,3-d]pyrimidin-7-yl)-5-(((3-(phenethylamino)propyl)amino)methyl)cyclopentane-1,2-diol] | ≤ 0.01 | 15 to 20 | < 0.1
Nc1ncnc2c1c(-c1nc(Cc3ccccc3)cs1)cn2[C@@H]1C[C@H](CNCCCNCCc2ccccc2)[C@@H](O)[C@H]1O [Compound 605, (1R,2S,3R,5R)-3-(4-Amino-5-(4-benzylthiazol-2-yl)-7H-pyrrolo[2,3-d]pyrimidin-7-yl)-5-(((3-(phenethylamino)propyl)amino)methyl)cyclopentane-1,2-diol] | 0.01 to 0.1 | 15 to 20 | 0.1 to 1
CNc1ncnc2c1ccn2[C@@H]1C[C@H](CN(CCCN)c2cn[nH]c2Br)[C@@H](O)[C@H]1O [Compound 606, (1S,2R,3R,5R)-3-{[(3-Aminopropyl)(3-bromo-2H-pyrazol-4-yl)amino]methyl}-5-[4-(methylamino)pyrrolo[2,3-d]pyrimidin-7-yl]cyclopentane-1,2-diol] | > 1 | ≤ 10 | > 10
